From patent publication US20260327628A1, “AN RNA APTAMER THAT BINDS TO ASP7967 OR AN ANALOGUE THEREOF” (priority 2022, published 2026)
Where “and” joins values, the source holds several entries; their conditions need not be identical. Identical values can stand only once. Entries after “also recorded” stand apart in the source; their conditions may differ.

Columns and labels:
[1] = system: hEPO expression in mice; test: In vivo hEPO assay in mice injected with AAV8 vectors; set-up: species or system BALB/c cAJc1 mice
Method: For AAV production, 293T cells seeded in cellstack5 (Corning) were cotransfected using PEI MAX (Polysciences Inc) with 227.9 μg of the plasmid encoding AAV8 replication and capsid proteins, 455.8 μg of the plasmid encoding helper proteins and 227.9 μg of the pAAV-CMV-hEPO-a8c or -control. At 6 days after transfection, cells and supernatants were harvested, then filtered and concentrated by KrosFlo Research Ili (Spectrum Labs, Inc) for AAV purification by affinity chromatography using AKTA avant 25 (GE healthcare). Then, the virus solutions were ultracentrifuged and dialyzed. Titers of the AAV solutions were determined by quantitative PCR using the AAVpro Titration Kit (for Real-Time PCR) Ver.2 (Takara).
For in vivo animal experiments, 7-week-old male BALB/c cAJc1 mice (CLEA Japan Inc.) were intravenously injected with 200 μl of PBS (as the control group) or purified AAV8 particles (3.0×10^10 virus genome (vg) per mouse) carrying hEPO gene with or without the CPP-a8c-AC17-4 riboswitch. After 13 days from AAV injection, mice were subjected to 24 μl blood collection from tail vein and the blood samples were immediately diluted with 96 μl. At 24 h after the blood collection, the mice were orally administrated 100 mg kg^−1 of ASP7967 in 0.5% methyl cellulose (FUJIFILM Wako Pure Chemical Corp) or 0.5% methyl cellulose as the vehicle solution. At 2, 4, 6, 8 and 24 h after the ASP7967 administration, blood samples were collected as described above. The blood samples were incubated on ice, then centrifuged at 1,200×g for 15 min at 4° C. to collect serum samples. The serum samples were stored at −80° C. and used for measurement of serum hEPO concentration by ELISA.
Next, we studied the riboswitch potency and functionality in vivo. […] Mice were intravenously injected with viral vectors AAV8-CMV-hEPO-control, AAV8-CMV-hEPO-a8c-AC17-4-CPP, or saline (WT). Two weeks after AAV injection, 100 mg kg^−1 dose of ASP7967 was orally administered to induce expression from the riboswitch-regulated vector. Blood was drawn before and at multiple time points after the oral administration (FIG. 9c). Secreted hEPO levels in the serum of the mice injected with the control AAV (AAV8-CMV-hEPO-control) were around 550 mIU ml^−1, and administration of 100 mg kg^−1 dose of the ligand had no effect during the observed time period (FIG. 9d, upper right). On the other hand, upon administration of 100 mg kg^−1 dose of the ligand, hEPO secretion levels were induced by riboswitch-regulated vector (AAV8-CMV-hEPO-a8c-AC17-4-CPP) reaching approximately 115 mIU mL-1 at 6-8 h postdosing, corresponding to a 7.2-fold increase over the mice dosed with the vehicle (FIG. 9d, lower left).

[2] = target: cpAC17-4 RNA aptamer; test: Affinity measurement by SPR, cpAC17-4 immobilized chip; type: binding; details: cpAC17-4 with 3′ poly(A) tail
Method: Affinity measurements of the aptamers with the ligands by SPR were performed as described by Chang et al.^53 with some modifications. Experiments were performed on Biacore T200 (Cytiva) at 25° C. For immobilization of the capture DNA (5′-/5AmMC6/[…]-3′ (SEQ ID NO: 32),/5AmMC6/: 5′ amino modifier C6, IDT), 1×HBS-N (10 mM HEPES, pH 7.4, 150 mM NaCl) was used as the running buffer. CM5 chip surface was washed by two injections of NaOH/NaCl solution (25 mM NaOH, 1 M NaCl) at 20 μl min^−1 for 30 s. […]
The dsDNA templates for in vitro transcription of the aptamers were prepared by primer extension of two oligo DNAs using Q5 High-Fidelity DNA Polymerase (NEB). […] RNA concentrations were determined by absorbance at 260 nm according to OligoCalc^54. […] An aptamer ligand was injected at 30 μl min^−1 for 120 s to monitor association, and then the dissociation kinetics was monitored for 180 s in the SPR running buffer. […] The raw data were analysed by Biacore T200 Evaluation Software 1.0 using 1:1 Langmuir interaction model. […] Dissociation constant (KD) was determined from the ratio of the association and the dissociation rate constants (KD=koff/kon) or by equilibrium analysis. […]

For `Fc1ccc(Nc2nc(NCc3ncccn3)nc(Nc3ccc(F)cc3)n2)cc1` [ASP7967], the “hEPO secretion level (serum)” value ([1]; 100 mg kg^−1 oral, 6-8 h postdosing, AAV8-CMV-hEPO-a8c-AC17-4-CPP) was “approximately 115 mIU mL-1”, the “increase of serum hEPO over vehicle” value ([1]; 100 mg kg^−1 oral, AAV8-CMV-hEPO-a8c-AC17-4-CPP) was 7.2 fold and ~ 7.2 fold and the “effect of ligand on serum hEPO in mice injected with control AAV” value ([1]; 100 mg kg^−1 oral, AAV8-CMV-hEPO-control) was “no effect”. The “serum hEPO / transgene expression as ligand concentration declines” value ([1]; 100 mg kg^−1 oral, after 6-8 h) was “subsequently decreased; also recorded: diminished as the ligand concentration in the target tissue declined” and the “hEPO after readministration of the ligand” value ([1]; readministration, data not shown) was “reactivation of hEPO”.

Compound `Fc1ccc(Nc2nc(NCc3ncccn3)nc(Nc3ccccc3)n2)cc1` [ASP2905, reference compound] has a Kd [2] of 30 nM.
